Values quoted from earlier work as cited in US8372995B2, “Crystalline solid forms of tigecycline and methods of preparing same” (priority 2005, dated 2013).

Tests used:
[1] = test system: vancomycin-resistant enterococci
[2] = test system: methicillin-resistant Staphylococcus aureus
[3] = test system: organisms carrying either of the two major forms of tetracycline resistance: efflux and ribosomal protection
[4] = test system: penicillin-resistant Streptococcus pneumoniae
[5] = oral

Compound: CN(C)c1cc(NC(=O)CNC(C)(C)C)c(O)c2c1C[C@H]1C[C@H]3[C@H](N(C)C)C(O)=C(C(N)=O)C(=O)[C@@]3(O)C(O)=C1C2=O [Tigecycline]
- activity against vancomycin-resistant enterococci [1]: active
- activity against methicillin-resistant Staphylococcus aureus [2]: active
- activity against organisms carrying tetracycline resistance (efflux, ribosomal protection) [3]: active
- activity against penicillin-resistant Streptococcus pneumoniae [4]: active
- bioavailability when given orally [5]: generally poor
